# Measured values reported in the supplement of paper PMC10307832.
# Assays:
# Assay in all cases: relative viability (nuclei count vs DMSO), 5 days (fraction); higher = more cells survive
# [1] = compound: CCOC1=CC=CC=C1N=NC2=C(NN(C2=O)C3=NC(=CS3)C4=CC=CC=C4)C [BAM7] + CC(=O)c1c(C)c2cnc(Nc3ccc(N4CCNCC4)cn3)nc2n(C2CCCC2)c1=O [Palbociclib] (partner 0.5 µM)
# Summary of the method: (§1)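 Cells from lung cancer lines were seeded into 1536-well plates and, one day later, dosed by pin tool. Treatments were either a single drug or a fixed dose of an anchor drug with five library-drug doses (not always all listed) in √10 steps. After 5 days, nuclei were stained in a one-step fixation (final 0.05% Triton X-100, 1% formaldehyde, 1 ug/ml Hoechst) and counted on 4× images, and relative viability is the treated-to-vehicle nuclei ratio, as the median of duplicate plates.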
# [2] = compound: CCOC1=CC=CC=C1N=NC2=C(NN(C2=O)C3=NC(=CS3)C4=CC=CC=C4)C [BAM7] + CS(=O)(=O)CCNCc1ccc(-c2ccc3ncnc(Nc4ccc(OCc5cccc(F)c5)c(Cl)c4)c3c2)o1 [Lapatinib] (partner 2 µM)
# Summary of the method: as §1
# [3] = compound: CCn1c(-c2nonc2N)nc2c(C#CC(C)(C)O)ncc(OC[C@H]3CCCNC3)c21 + CCNC(=O)c1noc(-c2cc(C(C)C)c(O)cc2O)c1-c1ccc(CN2CCOCC2)cc1 [Luminespib] (partner 0.01 µM)
# Summary of the method: as §1
# [4] = compound: CCn1c(-c2nonc2N)nc2c(C#CC(C)(C)O)ncc(OC[C@H]3CCCNC3)c21 + Cc1cc(Nc2cc(N3CCN(C)CC3)nc(Sc3ccc(NC(=O)C4CC4)cc3)n2)n[nH]1 [Tozasertib] (partner 0.1 µM)
# Summary of the method: as §1
cell line,measurement,setting,value
UMC-11,relative viability,[1]; first compound 0.5 µM,0.32
same,relative viability,[1]; first compound 5 µM,0.341
same,relative viability,[1]; first compound 15.81 µM,0.342
same,relative viability,[1]; first compound 50 µM,0.336
same,relative viability,[2]; first compound 0.5 µM,1.02
same,relative viability,[2]; first compound 5 µM,0.981
same,relative viability,[2]; first compound 15.81 µM,1.12
same,relative viability,[2]; first compound 50 µM,1.15
same,relative viability,[3]; first compound 0.01 µM,0.97
same,relative viability,[3]; first compound 0.03162 µM,0.922
same,relative viability,[3]; first compound 0.1 µM,0.991
same,relative viability,[3]; first compound 0.3162 µM,0.956
same,relative viability,[3]; first compound 1 µM,1
same,relative viability,[4]; first compound 0.01 µM,0.198
same,relative viability,[4]; first compound 0.03162 µM,0.209
same,relative viability,[4]; first compound 0.1 µM,0.194
same,relative viability,[4]; first compound 0.3162 µM,0.201
same,relative viability,[4]; first compound 1 µM,0.197
